Experimental data published in ChEMBL document CHEMBL1127212, “Preparation and evaluation of the antiaggregating and vasodilating activities of the novel 3-nitro-4(3H)-quinazolinone derivatives” (Bioorg Med Chem Lett, 1993).

Legend:
Format in all cases: functional
Oryctolagus cuniculus [1] = organism: Oryctolagus cuniculus; assay: Tested for vasodilating activity using a transverse strip preparation of rabbit thoracic aorta
Oryctolagus cuniculus [2] = organism: Oryctolagus cuniculus; assay: Tested in vitro for inhibition of aggregation induced by Collagen in rabbit platelet rich plasma at the dose of 10 ug/ml
Oryctolagus cuniculus [3] = organism: Oryctolagus cuniculus; assay: Tested in vitro for inhibition of aggregation induced by adenosine diphosphate (ADP) in rabbit platelet rich plasma at the dose of […]
Oryctolagus cuniculus [4] = organism: Oryctolagus cuniculus; assay: Tested in vitro for inhibition of aggregation induced by arachidonic acid in rabbit platelet rich plasma at the dose of 125 uM
Oryctolagus cuniculus [5] = organism: Oryctolagus cuniculus; assay: Tested for inhibition of aggregation induced by Collagen in rabbit platelet rich plasma in vitro at the dose of 10 ug/ml
Oryctolagus cuniculus [6] = organism: Oryctolagus cuniculus; assay: Tested for inhibition of aggregation induced by adenosine diphosphate (ADP) in rabbit platelet rich plasma in vitro at the dose of […]
Oryctolagus cuniculus [7] = organism: Oryctolagus cuniculus; assay: Tested for inhibition of aggregation induced by arachidonic acid in rabbit platelet rich plasma in Vitro at the dose of 125 uM

For CC(=O)OC1N([N+](=O)[O-])C(=O)c2cc(Cl)ccc2N1[N+](=O)[O-] (stereo unspecified), the pD2 (Oryctolagus cuniculus [1]) was 5.4, the IC50 (Oryctolagus cuniculus [2]; Oryctolagus cuniculus, Plasma) was 52 µM and the IC50 (Oryctolagus cuniculus [3]; Oryctolagus cuniculus, Plasma) was 46 µM. The IC50 (Oryctolagus cuniculus [4]) was 40 µM.
In the case of CC(=O)OC1N([N+](=O)[O-])C(=O)c2ccccc2N1[N+](=O)[O-] (stereo unspecified), the pD2 (Oryctolagus cuniculus [1]) is reported as 5.36, the IC50 (Oryctolagus cuniculus [5]) is reported as 52 µM and the IC50 (Oryctolagus cuniculus [6]) is reported as 48 µM. For the same compound, the IC50 (Oryctolagus cuniculus [7]) was 50 µM.
“SODIUM NITROPRUSSIDE [listing 1 of 2 here]” was tested, and the IC50 (Oryctolagus cuniculus [2]) was < 1000 µM and the IC50 (Oryctolagus cuniculus [3]) was 95 µM.
Work on “SODIUM NITROPRUSSIDE [listing 2 of 2 here]” yielded a pD2 (Oryctolagus cuniculus [1]) of 4.08.
